“Also recorded” adds a separate entry of the source.

Assay [1] concerns monoclonal antibody 12-9-9. Description: In vitro inhibition assay (ELISA). On the set-up: key: 0: no competition of 12-9-9 detectable in ELISA; 1: weak competition: competition of mimotope weaker compared to the minimal original sequence p5436; 2: strong competition: competition of mimotope similar to the minimal original sequence p5436. The conditions noted are these: competition capacity in ELISA, peptide 400 μg/ml to 3 μg/ml, plates coated with p5436 and p4446. Format: binding, mouse. The method, then:
Different amounts of peptides (concentrations ranging from 400 μg/ml to 3 μg/ml (serial dilutions), derived from Phage Display were incubated with the monoclonal antibody that was used for the screening procedure. Peptides diminishing subsequent binding of the antibody to the original human alpha-synuclein epitope (p5436) and the human alpha-synuclein protein (p4446) coated on ELISA plates were considered as inhibiting in this assay.
For orientation: In an ELISA, binding on a coated surface is turned into a signal by an enzyme label.

Assay [2] deals with monoclonal antibody 12-9-9. Description: In vitro binding assay (ELISA) with monoclonal antibody 12-9-9. On the set-up: species or system mouse; key to Binding: 0: no binding to 12-9-9 detectable in ELISA; 1: weak binding: binding of mimotope weaker compared to the minimal original sequence p5436; 2: strong binding: binding of mimotope similar to the minimal original sequence p5436. The conditions noted are these: for Binding: binding capacity to 12-9-9 in ELISA, peptide-BSA coated (1 μM), compared with p5436; for detection/binding by monoclonal antibody 12-9-9 in ELISA: result in words. From the text: A monoclonal antibody derived from the fusion “AFFiRiS 6”: Balb/c mice (Charles River) were immunized with original alpha-synuclein epitope LGKNEEGAPQ-C (SEQ ID NO:3) coupled to BTG (bovine thyroglobuline) and CFA (complete Freund's adjuvant; first injection) as well as IFA (incomplete Freund's adjuvant; 3 booster injections) as adjuvant. LGKNEEGAPQ-peptide-specific (SEQ ID NO: 203) antibody-producing hybridomas are detected by ELISA (LGKNEEGAPQC-peptide-coated (SEQ ID NO: 3)ELISA plates). Human alpha-synuclein (recombinant protein, p4446) is used as positive control peptide: hybridomas recognizing the recombinant protein immobilized on ELISA plates are included because they are binding both peptide and full length alpha-synuclein specifically. […] The Hybridoma clone (12-9-9; IgG1, kappa) was analysed for specific detection of the natural human alpha-synuclein epitope LGKNEEGAPQ. (SEQ ID NO: 203). 12-9-9 recognizes the injected epitope as well as full length alpha-synuclein protein (recombinant protein; obtained from rPeptide, Bogart, Ga., USA) in ELISA (see FIG. 2). […] Thus the minimal required epitope for binding has been defined as KNEEGAP (SEQ ID NO: 139).
Peptides derived from Phage Display as well as N-terminally truncated variants thereof were coupled to BSA and bound to ELISA plates (1 μM) and subsequently incubated with the monoclonal antibody that was used for the screening procedure to analyse binding capacity of identified peptides (see FIG. 4).

The subject of assay [3] is recombinant human alpha-synuclein protein. Description: In vivo testing of mimotopes: serum titer against alpha-synuclein (ELISA). As to conditions: mice immunized with peptide-KLH, alum, OD halfmax. The method, then:
Inhibiting as well as non-inhibiting peptides were coupled to KLH and injected into mice (wildtype C57/B16 or BalbC mice; subcutaneous injection into the flank) together with an appropriate adjuvant (aluminium hydroxide). Animals were vaccinated 3 times in biweekly intervals and sera were taken biweekly as well. Titers to injected peptides as well as to an irrelevant peptide were determined with every serum. Titers against the recombinant human alpha-synuclein protein and recombinant human beta-synuclein were determined starting with Serum 2 respectively. In general sera were analysed by reaction against peptides coupled to Bovine Serum Albumin (BSA) and recombinant full length proteins which were immobilised on ELISA plates. Titers were determined using anti mouse IgG specific antibodies. For examples of immunogenicity against injected peptide and alpha-synuclein see Table 5 and Table 6.
Female C57/B16 mice or BalbC, 5-6 mice per group, were subcutaneously immunized with 30 μg peptide coupled to KLH. Control groups were injected with PBS or the original epitope. As adjuvant alum was used. The peptides administered were all able to bind to monoclonal antibodies specifically binding aa100-109 of human alpha-synuclein although some of the peptides did inhibit the binding of the original epitope to its parental antibody in vitro only weakly (in an in vitro inhibition assay). The in vitro ELISA assay to determine the antibody titer was performed with sera of single mice (see Tab. 5) after each vaccination in a two week interval. The wells of the ELISA plate were coated with mimotope-BSA conjugates. The positive control was performed by reaction of the parental antibody with the respective mimotope-BSA conjugate. The detection was performed with anti-mouse IgG. Additionally, recombinant proteins were immobilised on ELISA plates and sera reacted accordingly. For all mimotopes tested in C57/B16 mice or BalbC, antibodies reacting to the individual injected peptide could be detected after repeated vaccination. Although not all mice induced higher titer against alpha-synuclein (see tab. 5 for examples).

As for TASWKGEC [p5548, mimotope], the Competition in assay [1] was 1. The same substance registered a Binding in assay [2] of 2.

In the case of LGKNEEGAPQC [p4453, reference compound], in assay [2], the Binding came out at 2 and the “detection/binding by monoclonal antibody 12-9-9 in ELISA” value (“detection/binding” for short) is on record as “detected; also recorded: retained full binding capacities”.

As for LGKNEC [p5406, reference compound], the “detection/binding” value in assay [2] is listed as “lost binding”.

In assay [2], ASEEGAPC [p5594, mimotope] returned a Binding of 1.

For HNAEGAPC [p5598, mimotope], in assay [2], the Binding is 1.

For the substance LGKNEEGAC [p5403, reference compound], the “detection/binding” value in assay [2] is recorded as “lost binding”.

For the substance RNAEGAPC [p5597, mimotope], in assay [3], the “class of immunogenicity: a Syn” value was 1 (peptides inducing an immune response with OD halfmax between 1000 and 51.). This substance came in with a Competition in assay [1] of 1. Besides, the Binding in assay [2] was 2.

With TPSWKGEC [p5464, mimotope], the “class of immunogenicity: a Syn” value in assay [3] is reported as 0 (peptides inducing no immune response or a very low immune response with OD halfmax around 50 or lower.). The Competition in assay [1] was 1. The substance also displayed a Binding in assay [2] of 2.

As to KSDEGAPC [p5600, mimotope], the “class of immunogenicity: a Syn” value in assay [3] was 1 (peptides inducing an immune response with OD halfmax between 1000 and 51.). In assay [1], the Competition is on record as 1. In assay [2], this substance registered a Binding of 2.

Substance KAEEGAPC [p5438, mimotope] came in with a Binding in assay [2] of 1.

As to GKNEEGAPQC [p5397, reference compound], the Competition in assay [1] was determined as 2. In assay [2], the Binding is 2 and the “detection/binding” value is “retained full binding capacities”.

For the substance KNEAGAPC [p5440, mimotope], the “detection/binding” value in assay [2] is given as “not detected”.

For KNDDGAPC [p5449, mimotope], in assay [1], the Competition is recorded as 1. In assay [2], this substance returned a Binding of 2.

In assay [2], Alpha-synuclein [p4446] had a Binding of 2. In addition, the figures for the “detection/binding” value in assay [2], in assay [2] (listed as Alpha-Synuclein) and in assay [2] (listed as alpha-synuclein protein) were “detected; also recorded: retained full binding capacities”, “detected similarly” and “recognizes”, respectively.

As to CTPSWKGE [p5560, mimotope], in assay [2], the Binding turned out to be 2.

Substance RQEDGAPC [p5603, mimotope] returned a Competition in assay [1] of 1. The substance further registered a Binding in assay [2] of 2.

RSAEGAPC [p5605, mimotope] came in with a Binding in assay [2] of 2.

Turning to LGKNEEC [p5405, reference compound], the “detection/binding” value in assay [2] is listed as “lost binding”.

For the substance TPSAKGEC [p5557, mimotope], the Competition in assay [1] is on record as 1.

KQEEGAPC [p5447, mimotope] registered a Binding in assay [2] of 2.

For the substance HSAEGAPC [p5604, mimotope], in assay [2], the Binding is given as 1.

Substance KSAEGAPC [p5599, mimotope] had a Binding in assay [2] of 2.

Take ANDEGAPC [p5591, mimotope]: in assay [2], the Binding amounted to 2.

HNDEGAPC [p5596, mimotope] had a Binding in assay [2] of 2.

Take QPSFAMEC [p5462, mimotope]: the “class of immunogenicity: a Syn” value in assay [3] is reported as 0 (peptides inducing no immune response or a very low immune response with OD halfmax around 50 or lower.). This substance came in with a Binding in assay [2] of 2.

TPSWAGEC [p5558, mimotope] came in with a Binding in assay [2] of 2.

Regarding RQDEGAPC [p5602, mimotope], the Competition in assay [1] is reported as 1. In assay [2], this substance came in with a Binding of 2.

QASFAMEC [p5547, mimotope] yielded a Binding in assay [2] of 1.

For SPSFKQEC [p5463, mimotope], the “class of immunogenicity: a Syn” value in assay [3] is 0 (peptides inducing no immune response or a very low immune response with OD halfmax around 50 or lower.). This substance also gave a Binding in assay [2] of 2.

Take LPSFRLEC [p5466, mimotope]: the “class of immunogenicity: a Syn” value in assay [3] was 0 (peptides inducing no immune response or a very low immune response with OD halfmax around 50 or lower.). Further, the Binding in assay [2] was determined as 1.

In the case of RQEEGAPC [p5589, mimotope], in assay [2], the Binding is reported as 2.

ANEEGAPC [p5437, mimotope] showed a Binding in assay [2] of 2.

For the substance Beta-Synuclein [p4447], the entries for the “detection/binding” value in assay [2] and in assay [2] (listed as beta-synuclein protein) were “not detected” and “does not detect”, respectively.

With EGAPQC [p5401, reference compound], the “detection/binding” value in assay [2] is “lost binding”.

As to KSEDGAPC [p5601, mimotope], in assay [2], the Binding was determined as 2.

For the substance DPSFALEC [p5465, mimotope], the “class of immunogenicity: a Syn” value in assay [3] was 0 (peptides inducing no immune response or a very low immune response with OD halfmax around 50 or lower.). For the same substance, in assay [2], the Binding worked out at 2.

RQDDGAPC [p5610, mimotope]: the Binding in assay [2] is recorded as 2.

The substance HSEEGAPC [p5593, mimotope] yielded a Binding in assay [2] of 1.

Consider KPSFKNEC [p5461, mimotope], for which, in assay [3], the “class of immunogenicity: a Syn” value was 0 (peptides inducing no immune response or a very low immune response with OD halfmax around 50 or lower.). The substance further registered a Binding in assay [2] of 2.

On to HNEEGAPC [p5444, mimotope], for which, in assay [2], the Binding was 2 and the “detection/binding” value is given as “detected much weaker than the human epitope”.

RSDEGAPC [p5606, mimotope] came in with a Binding in assay [2] of 2.

Regarding KNEDGAPC [p5446, mimotope], in assay [1], the Competition is reported as 1. In assay [2], the Binding was determined as 2.

In assay [1], KNEEGAPQC [p5398, reference compound] had a Competition of 2. In assay [2], the Binding amounted to 2 and the “detection/binding” value was “retained full binding capacities”.

As to QASSKLDC [p5549, mimotope], in assay [2], the Binding amounted to 1.

Take HSDEGAPC [p5608, mimotope]: the Binding in assay [2] was found to be 1.

In turn, CKNEEGAP [p5435, reference compound] registered a Competition in assay [1] of 1. The substance also displayed a Binding in assay [2] of 2.

Take QPSSKLDC [p5468, mimotope]: in assay [3], the “class of immunogenicity: a Syn” value is listed as 0 (peptides inducing no immune response or a very low immune response with OD halfmax around 50 or lower.). This substance yielded a Binding in assay [2] of 2.

For NEEGAPQC [p5399, reference compound], the “detection/binding” value in assay [2] is recorded as “lost binding”.

RNEDGAPC [p5588, mimotope] had a Competition in assay [1] of 1. In addition, the Binding in assay [2] is 2.

In turn, KSEEGAPC [p5448, mimotope] returned a Competition in assay [1] of 1. This substance also yielded a Binding in assay [2] of 2.

As to EEGAPQC [p5400, reference compound], the “detection/binding” value in assay [2] is reported as “lost binding”.

Take LGKNEEGC [p5404, reference compound]: the “detection/binding” value in assay [2] is reported as “lost binding”.

The substance TPAWKGEC [p5551, mimotope] came in with a Binding in assay [2] of 1.

RSEDGAPC [p5607, mimotope]: the Binding in assay [2] is 2.

The values are drawn from patent US8828942B2, “Means for treating synucleinopathies” (Affiris AG, priority 2009, dated 2014).
